Patent publication US9630916B2, “Organocatalysts of oxidative protein folding” (Wisconsin Alumni Research Foundation, priority 2014, dated 2017)
Several values for one entry are separate records, joined by “and”; a condition that tells them apart may be missing. Equal values may be shown once. Read-outs that look alike come from different tables or passages of the source. Each block holds one molecule with its values, some of them ahead of it.

Experiments:
sRNase A = biological target: T1, sRNase A (Bos taurus, UniProt P61823); experiment: Assay for disulfide-bond isomerization activity: unscrambling of sRNase A to give native RNase A; assay type: biochemical, bovine; conditions: for Folding yield (%): native RNase A from sRNase A, 1 mM catalyst, 30° C., 50 mM Tris-HCl pH 7.6, GSH 1.0 mM, GSSG 0.2 mM, after 5 h
T1 construct: purchased Sigma-Aldrich
T1 sequence (P61823 27-150): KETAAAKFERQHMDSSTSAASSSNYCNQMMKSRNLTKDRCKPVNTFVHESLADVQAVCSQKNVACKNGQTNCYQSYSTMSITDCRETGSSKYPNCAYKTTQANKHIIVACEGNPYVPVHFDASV
Description: FIGS. 4A and 4B are graphs illustrating catalysis of disulfide-bond isomerization by PDI and PDI mimics 1-7. (4A) Is a graph of the time-course for the unscrambling of sRNase A to give native RNase A. All reactions were performed at 30° C. in 50 mM Tris-HCl buffer, pH 7.6, containing GSH (1.0 mM), GSSG (0.2 mM), and PDI or dithiol 1-7 (1.0 mM). (4B) Is a graph of yield of native RNase A achieved by PDI mimics 2-7 after 5 h as a function of the calculated log P values listed in Table 1.
Enzymatic catalysis provides an extremely sensitive measure of native protein structure. RNase A contains eight cysteine residues, which could form 105 (=7×5×3×1) distinct fully oxidized species, only one of which gives rises to enzymatic activity (FIG. 3). Accordingly, the ability of this panel of compounds to catalyze the isomerization of “scrambled” RNase A (sRNase A) was tested. “Scrambled” RNase A is a random mixture of oxidized species, compared to its native state. The isomerization reaction was monitored by measuring the gain of catalytic activity.
sRNase was prepared as described previously, and validated by its having low ribonucleolytic activity and few free thiols according to Ellman's assay. Bovine liver PDI was from Sigma-Aldrich (product #P3818). The activation of sRNase A in the presence of refolding catalysts was determined as described previously. Refolding reactions were performed at 30° C. in 50 mM Tris-HCl buffer, pH 7.6, containing GSH (1.0 mM), GSSG (0.2 mM), and catalyst (1.0 mM). Organocatalysts were delivered from 100-fold concentrated stock solutions in DMSO. Reactions were initiated by the addition of sRNase A to a final concentration of 5 μg/mL. Reaction progress was monitored by quantifying the cleavage of the substrate 6-FAM-dArUdAdA-6-TAMRA at 493/515 nm, as described previously. Assays were performed in triplicate at ambient temperature in a black polystyrene 96-well plate, in 200 μL of 0.10 M MES-NaOH buffer, pH 6.0, containing NaCl (0.10 M). The resulting fluorescence data were fitted to the equation kcat/KM=(ΔI/Δt)/(If−I0)[E], in which ΔI/Δt is the initial reaction velocity, I0 is the fluorescence intensity before addition of any ribonuclease, If is the fluorescence intensity after complete substrate hydrolysis, and [E] is the total ribonuclease concentration. Reaction progress was monitored every hour until the increase in activity leveled off (˜5 h). In FIG. 4A, data were fitted to eq 2. [active RNase A]=[sRNase A]t=0(1−e^[catalyst]tk^obs) (2)

[1] = Determination of disulfide E°′ (equilibration with oxidized β-mercaptoethanol, analytical HPLC, Nernst equation); assay type: physicochemical; conditions: equilibrium with βME^ox, mean of three measurements
Description: (§1) Dithiol 2 was synthesized from diethylenetriamine in a few high-yielding steps (see: The Examples). Thiol pKa values were measured by monitored the thiols A238 am as a function of pH. […] These values are slightly less than those of BMC (Table 1), presumably due to the introduction of an additional electronegative nitrogen atom. To determine the reduction potential of the oxidized form of the dithiol, equimolar amounts of dithiol 2 and oxidized β-mercaptoethanol were equilibrated and the amount of each reduced and oxidized species was quantitated with analytical HPLC. […] Finally, to probe the effect of increasing hydrophobicity on catalyzing the formation of native disulfide bonds in proteins, dithiols 3-8 were synthesized.
The reduction potentials of BMC, 2, and 7 were determined as described previously. Briefly, an equilibrium was established between reduced BMC (or 2, 5, or 7) and βME^OX, and analyzed with analytical HPLC. The equilibrium concentrations were determined by integration of the peaks corresponding to βME and βME^ox. From these concentrations, the Keq for the reaction was determined and the reduction potential of BMC (or 2 or 7) was then calculated using the Nernst equation and EβME^OX^∘′=−0.260 V. The values reported are the mean (±SE) of three separate measurements for each compound

[2] = Determination of thiol pKa values (A238 vs pH); assay type: physicochemical; conditions: potassium phosphate buffers of varied pH, absorbance at 238 nm, 0.10 M potassium phosphate buffers
Description: as §1
The thiol pKa values for 2 and 7 were determined by closely following a procedure reported previously that exploits the elevated absorbance of the deprotonated thiolate at 238 nm. […] [9, 55]
In eq 1, CT is the total thiol concentration, εSH^SH is the extinction coefficient of the doubly protonated form of 2 or 7, εSH^S− is the extinction coefficient of the singly protonated form of 2 or 7, and εS−^S− is the extinction coefficient of the doubly deprotonated form of 2 or 7.

[3] = cited from earlier work
[4] = PDI active-site disulfide; literature value [21, 22]; cited from earlier work
[5] = higher of two thiol pKa values, read-out: thiol pKa (second value)
[6] = lower of two thiol pKa values, read-out: thiol pKa (first value)

Molecule: CCCC(=O)N(CCNC(=O)CS)CCNC(=O)CS [Dithiol 4]
Folding yield (%) (sRNase A): 54 ± 4%

Molecule: CC(=O)N(CCNC(=O)CS)CCNC(=O)CS [Dithiol 3]
Folding yield (%) (sRNase A): 45 ± 2%

Molecule: O=C(CS)N[C@@H]1CCCC[C@H]1NC(=O)CS (racemic) [Dithiol 1, (±)-trans-1,2-bis(mercaptoacetamido)cyclohexane, reference compound]
thiol pKa (first value) ([3]; values from ref. [30]): 8.3
thiol pKa (second value) ([3]; values from ref. [30]): 9.9
Folding yield (%) (sRNase A): 42 ± 2%
Disulfide E°′ [1]: −0.232 V

Molecule: O=C(CS)NCCNCCNC(=O)CS [Dithiol 2]
Folding yield (%) (sRNase A): 50 ± 2%
Disulfide E°′ ([1]; listed as 2): −0.192 V
Disulfide E°′ ([1]; listed as dithiol 2): −0.192±0.003 V
pKa [2, 5]: 9.2 ± 0.1
pKa [2, 6]: 8 ± 0.2

Second part, led by results:

Folding yield (%) (sRNase A): 57 ± 1%
Disulfide E°′ [1]: −0.203 V
pKa [2, 5]: 9.3 ± 0.3
pKa [2, 6]: 8.1 ± 0.3
Molecule: CCCCCC(=O)N(CCNC(=O)CS)CCNC(=O)CS [Dithiol 5]

Folding yield (%) (sRNase A): 60 ± 2%
Molecule: O=C(CS)NCCN(CCNC(=O)CS)C(=O)c1ccccc1 [Dithiol 6]

Folding yield (%) (sRNase A): 66 ± 2%
increase of the yield of folded RNase A versus the uncatalyzed reaction (sRNase A; relative to uncatalyzed reaction (45 ± 2 %)): 47%
Disulfide E°′ [1]: −0.206 V
pKa [2, 5]: 9.4 ± 0.2
pKa [2, 6]: 8.1 ± 0.2
Molecule: CCc1ccc(C(=O)N(CCNC(=O)CS)CCNC(=O)CS)cc1 [Dithiol 7]

Folding yield (%) (sRNase A): 87 ± 2%
B1: PDI: enzyme protein disulfide isomerase (EC 5.3.4.1); bovine liver PDI from Sigma-Aldrich used in the assay (protein, UniProt P05307 21-510, looked up)
Protein disulfide-isomerase: APDEEDHVLVLHKGNFDEALAAHKYLLVEFYAPWCGHCKALAPEYAKAAGKLKAEGSEIRLAKVDATEESDLAQQYGVRGYPTIKFFKNGDTASPKEYTAGREADDIVNWLKKRTGPAASTLSDGAAAEALVESSEVAVIGFFKDMESDSAKQFFLAAEVIDDIPFGITSNSDVFSKYQLDKDGVVLFKKFDEGRNNFEGEVTKEKLLDFIKHNQLPLVIEFTEQTAPKIFGGEIKTHILLFLPKSVSDYEGKLSNFKKAAESFKGKILFIFIDSDHTDNQRILEFFGLKKEECPAVRLITLEEEMTKYKPESDELTAEKITEFCHRFLEGKIKPHLMSQELPDDWDKQPVKVLVGKNFEEVAFDEKKNVFVEFYAPWCGHCKQLAPIWDKLGETYKDHENIVIAKMDSTANEVEAVKVHSFPTLKFFPASADRTVIDYNGERTLDGFKKFLESGGQDGAGDDDDLEDLEEAEEPDLEEDDDQKAVKDEL
pKa ([3]; N-terminal cysteine in the active site of PDI, literature value): 6.7
Disulfide E°′ [4]: −0.18 V and −0.180 V
